Key:
BCL6 = BCL6 (Homo sapiens, UniProt P41182); conditions: well-characterized Boehringer Ingelheim inhibitor; read-out: in vitro IC50; cited from earlier work
GSK3beta = GSK3beta (Homo sapiens, UniProt P49841); experiment: UV-B induced denaturation of cell lysates, immunoblot of soluble fraction, GSK3beta; type: binding; conditions: lysates exposed to UV-B for 4 min; FIG. 29B
Sequence of GSK3beta (P49841 whole entry, species assumed): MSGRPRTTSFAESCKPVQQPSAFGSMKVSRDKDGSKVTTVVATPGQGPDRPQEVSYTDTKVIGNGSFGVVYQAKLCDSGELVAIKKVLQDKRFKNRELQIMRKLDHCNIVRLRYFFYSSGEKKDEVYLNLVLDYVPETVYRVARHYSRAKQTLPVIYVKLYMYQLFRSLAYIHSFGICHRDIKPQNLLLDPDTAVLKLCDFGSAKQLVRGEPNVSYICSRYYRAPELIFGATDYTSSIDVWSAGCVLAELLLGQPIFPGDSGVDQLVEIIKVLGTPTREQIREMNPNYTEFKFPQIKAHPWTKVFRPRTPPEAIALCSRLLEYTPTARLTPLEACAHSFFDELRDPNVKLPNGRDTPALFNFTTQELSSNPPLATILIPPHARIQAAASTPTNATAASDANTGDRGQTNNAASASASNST

stabilization of GSK3beta protein from UV-B induced denaturation (GSK3beta) | SMILES | IC50 (BCL6) [nM]
– | CNC(=O)COc1cc2cc(Nc3nc(N4CCC(C(=O)N(C)C)CC4)ncc3Cl)cc(OC)c2n(C)c1=O [BI-3812] | ~3
stabilization of the GSK3beta protein | Cc1c[nH]c(-c2cnc(NCCNc3ccc(C#N)cn3)nc2-c2ccc(Cl)cc2Cl)n1 [CHIR99021] | –

— patent US12510537B2, “High throughput drug screening methods” (NERD BIO LLC, priority 2020, dated 2025)
